From ChEMBL document CHEMBL1130472, “Potent selective thienoxazinone inhibitors of herpes proteases” (Bioorg Med Chem Lett, 1997)

Experiments:
[1] = system: Cytomegalovirus; assay: Percent inhibition for peptidolytic activity against cytomegalovirus (CMV) protease at 10 uM.; format: functional; conditions: Human betaherpesvirus 5
[2] = system: Human alphaherpesvirus 2; assay: Percent inhibition for peptidolytic activity against herpes simplex type-2(HSV-2) protease at 10 uM.; format: functional
[3] = system: Cytomegalovirus; assay: Inhibitory concentration for peptidolytic activity against cytomegalovirus (CMV) protease at 10 uM.; format: functional, organism-based; conditions: Human betaherpesvirus 5
[4] = system: Human alphaherpesvirus 2; assay: Inhibitory concentration for peptidolytic activity against herpes simplex type-2(HSV-2) protease at 10 uM.; format: functional, organism-based
[5] = target: T1, Capsid scaffolding protein (Herpes simplex virus (type 1 / strain 17), UniProt P10210); assay: Inhibitory concentration for peptidolytic activity against herpes simplex type-1 (HSV-1) protease at 10 uM.; parameters: species or system Human alphaherpesvirus 1
T1 sequence (P10210 whole entry): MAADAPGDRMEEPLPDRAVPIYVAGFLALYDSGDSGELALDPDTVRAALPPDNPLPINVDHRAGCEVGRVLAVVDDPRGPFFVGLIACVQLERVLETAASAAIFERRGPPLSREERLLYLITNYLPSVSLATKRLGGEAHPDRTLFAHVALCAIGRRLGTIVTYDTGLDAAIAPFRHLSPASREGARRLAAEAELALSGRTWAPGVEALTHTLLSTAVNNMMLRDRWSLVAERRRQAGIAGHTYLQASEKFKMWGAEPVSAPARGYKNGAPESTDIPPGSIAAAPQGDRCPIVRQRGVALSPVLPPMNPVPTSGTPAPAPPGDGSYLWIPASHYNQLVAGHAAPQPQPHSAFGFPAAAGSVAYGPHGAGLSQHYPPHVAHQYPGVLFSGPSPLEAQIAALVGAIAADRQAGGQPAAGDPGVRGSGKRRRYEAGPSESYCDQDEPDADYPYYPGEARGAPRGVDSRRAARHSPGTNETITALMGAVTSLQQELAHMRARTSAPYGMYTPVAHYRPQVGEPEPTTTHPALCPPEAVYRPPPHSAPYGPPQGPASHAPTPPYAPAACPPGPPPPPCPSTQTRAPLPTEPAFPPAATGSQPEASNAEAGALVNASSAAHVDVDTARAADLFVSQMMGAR

[6] = Half life was determined; format: ADME; conditions: rat
[7] = Inhibitory concentration for peptidolytic activity against elastase
[8] = Selectivity ratio of inhibitory concentration against elastase and HSV-1
[9] = Tested for peptidolytic activity against subtilisin at a concentration of 1 mM; no inhibition

## C[C@H](NC(=O)OCc1ccccc1)C(=O)Nc1csc2c(=O)oc([C@H](C)NC(=O)OCc3ccccc3)nc12
[1]
  inhibition at 10 µM: 43%
[2]
  inhibition at 10 µM: 50%

## O=C(N[C@@H](CO)c1nc2ccsc2c(=O)o1)OCc1ccccc1
[3]
  IC50: 20 µM
[4]
  IC50: 0.33 µM
[5]
  IC50: 0.65 µM

## C[C@H](NC(=O)OCc1ccccc1)c1nc2ccccc2c(=O)o1
[6]
  half-life: 14 h
[7]
  IC50: 45 µM
[8]
  Ratio: 1.1

## C[C@H](NC(=O)Nc1ccccc1)c1nc2ccsc2c(=O)o1
[3]
  IC50: > 100 µM
[4]
  IC50: > 100 µM

## Cc1ccc(S(=O)(=O)N[C@@H](C)c2nc3ccsc3c(=O)o2)cc1
[1]
  inhibition at 10 µM: 30%
[2]
  inhibition at 10 µM: 13%

## CC(C)[C@H](NC(=O)OCc1ccccc1)c1nc2ccsc2c(=O)o1
[3]
  IC50: 26 µM
[5]
  IC50: 31 µM

## O=C(NCc1nc2ccsc2c(=O)o1)OCc1ccccc1
[3]
  IC50: 45 µM
[5]
  IC50: 2.7 µM

## C[C@H](NC(=O)OCc1ccccc1)c1nc2c(Cl)c(NC(=O)[C@@H](C)NC(=O)OCc3ccccc3)sc2c(=O)o1
[3]
  IC50: 1.3 µM
[4]
  IC50: 1.6 µM

## Cc1cccc2nc([C@H](C)NC(=O)OCc3ccccc3)oc(=O)c12
[6]
  half-life: 33 h
[7]
  IC50: 0.22 µM
[8]
  Ratio: 0.002

## C[C@H](NC(=O)OCc1ccccc1)c1nc2cc(-c3ccccc3)sc2c(=O)o1
[3]
  IC50: > 300 µM
[5]
  IC50: 3.3 µM

## O=C(N[C@@H](Cc1ccccc1)c1nc2ccsc2c(=O)o1)OCc1ccccc1
[3]
  IC50: 3.5 µM
[5]
  IC50: > 300 µM

## C[C@H](NC(=O)NCc1ccccc1)c1nc2ccsc2c(=O)o1
[1]
  inhibition at 10 µM: 20%
[2]
  inhibition at 10 µM: 1%

## NC(=O)C[C@H](NC(=O)OCc1ccccc1)c1nc2ccsc2c(=O)o1
[3]
  IC50: 18 µM
[5]
  IC50: 10 µM

## C[C@H](Nc1ccc([N+](=O)[O-])cc1[N+](=O)[O-])c1nc2ccsc2c(=O)o1
[3]
  IC50: 3.3 µM
[4]
  IC50: 2.9 µM

## NC(=O)CC[C@H](NC(=O)OCc1ccccc1)c1nc2ccsc2c(=O)o1
[5]
  IC50: 6.3 µM

## C[C@H](NC(=O)OC(C)(C)C)c1nc2ccsc2c(=O)o1
[1]
  inhibition at 10 µM: 15%
[2]
  inhibition at 10 µM: 32%

## Cc1csc2c(=O)oc([C@H](C)NC(=O)OCc3ccccc3)nc12
[3]
  IC50: 12 µM
[5]
  IC50: 3.1 µM

## C[C@H](NC(=O)OCc1ccccc1)c1nc2ccsc2c(=O)o1
[6]
  half-life: > 100 h
[3]
  IC50: 9.4 µM
[7]
  IC50: 120 µM
[4]
  IC50: 0.42 µM
[5]
  IC50: 0.48 µM
[8]
  Ratio: 250
[9]
  IC50: Not Active
